In US12435051B2, “Dual modulator of mGluR5 and 5-HT2A receptor, and use thereof” (Vivozon Inc., priority 2020, dated 2025) one finds inhibition in vivo and IC50 data, which are given here for 20 molecules.

SMILES strings stand for the structures. Where two headings read alike, the source gives them in different places. Bounds are passed on as bounds.

Assay [1] concerns physical (tactile) allodynia in spinal nerve ligation model. Kind of assay: Analgesic efficacy experiment using animal model (Chung model, spinal nerve ligation). It counts as in vivo, Sprague-Dawley rats. The note with it: for inhibition in vivo at 25 mg/kg: 25 mpk. As to the method:
The Chung model (spinal nerve ligation model) is a representative animal model to study neuropathic pain and is widely accepted as a gold standard for an animal pain model by global pharmaceutical companies around the world.
In this experiment, male Sprague-Dawley rats (100-120 g) purchased from Koatech (Pyeongtaek-si, Gyeonggi-do) were used. Rats were kept in a room maintained at constant temperature and humidity with a 12 hour light-dark cycle. Rats were allowed to eat and drink freely during the experiment.
For the Chung surgery, rats were anesthetized by isoflurane inhalation and the left lumbar nerves L5 and L6 were tightly tied with a suture thread (6-0 silk thread) at the end of the dorsal ganglion and at a front of an entrance to the sciatic nerve according to the article (Kim and Chung (1992), Pain 50(3):355-63). After suturing the incision, the rats were recovered for 2 weeks in the controlled maintenance room to induce physical allodynia in the left hind paw of the rat. To measure physical (tactile) allodynia, the rats were placed in a cage with a wire mesh on the bottom. Stimuli of increasing intensity (using the von Frey filaments in a range of 0.41 to 15.8 g) were placed on the plantar surface on the side of the nerve injury. The stimulus intensity at which the pain response (abrupt lifting, licking or sucking of the foot) was induced was recorded while applying gradual increment of stimuli. As described in the study of Chaplan et al. (1994) (Chaplan et al. (1994) J. Neurosci. Methods 53(1):55-63), the paw withdrawal threshold (PWT) was determined by increasing or decreasing continuous stimulus intensity, and the result was analyzed by applying Dixon's up-down method. Only rats showing no behavior dysfunction (e.g., feet dragging or dropping) were selected and included in the study, and the PWT of the rats used was 3.16 g or less.
After measuring the degree of basic reaction before drug injection, each compound and solvent were injected by oral administration (12.5-100 mg/kg), and the measurement was repeated at regular time intervals (60 and 120 minutes) after the drug was injected.
The experimenter conducted the PWT measurement in a blind condition not knowing which rat was administered with which drug. The control group was administered with gabapentin (65 mg/kg, intraperitoneal administration), and was randomly mixed during the measurement. Statistical analysis was performed on the measured pain response threshold by calculating the reversal rate (% reversal) from pain in Equation 1 below. […] Pain reversal rate (% reversal)=[(PWT after drug administration)−(PWT before drug administration)]*100/[(15 g, Estimated PWT in normal animals)−(PWT before drug administration)] [Equation 1]
The PWT used in this time is a value obtained by multiplying the gram, the unit of “force” measure, by 10,000, and taking the logarithm, which is a method generally used in academia.
Each experiment consisted of the compound group, the solvent group of the compound and the gabapentin (GBP) group as positive control group. As solvent of the compound, 0.5% HPMC (hydroxypropylmethyl cellulose) was used.

Another assay addresses T1, human 5-HT2AR (Homo sapiens, UniProt P28223).
T1 construct: expressed in transfected cells; host or cells: HEK293
Put plainly: HTRF-based IP1 accumulation assay (5-HT2AR antagonistic effect). It counts as cell-based. The note with it: HEK293 cells overexpressing human 5-HT2AR; serotonin at EC80. A digest of the protocol:
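HEK293 cells stably overexpressing human 5-HT2AR were pre-incubated with compound (top 10 μM, serial dilutions, LiCl buffer) 10 min at room temperature, then stimulated with EC80 serotonin 30 min at 37 °C. IP1 accumulation was read by HTRF; IC50s came from activity normalized to serotonin and IP1 controls.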

A further assay addresses T2, mGluR5 (Homo sapiens, UniProt P41594).
T2 construct: expressed in transfected cells; host or cells: HEK293
Kind of assay: Fluorescence-based Ca2+ mobilization assay. Format: cell-based. The note with it: HEK293 cells overexpressing mGluR5; L-glutamate at EC80. A digest of the protocol:
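HEK293 cells stably overexpressing mGluR5, dye-loaded 60 min at 37 °C, then preincubated with compound 30 min at room temperature in the dark. Ca2+ response to L-glutamate at EC80 read on FLIPR for 2 min. Signal normalised to glutamate (100%) and vehicle (0%); IC50 from % inhibition.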
Background: Calcium assays in cells follow changes in intracellular calcium, usually with a dye or a luminescent sensor.

[2] abbreviates: rat, oral, 50 mpk, 1 h, read-out: % reversal (1 h).
[3] abbreviates: rat, oral, 50 mpk, 2 h, read-out: % reversal (2 h).
Where [4] appears, read: rat, oral, 1 h, read-out: % reversal (1 h).
The mark [5] stands for this setting: rat, oral, 2 h, read-out: % reversal (2 h).
[6] abbreviates: rat, oral, 100 mpk, 1 h, read-out: % reversal (1 h).
[7] abbreviates: rat, oral, 100 mpk, 2 h, read-out: % reversal (2 h).
Setting [8] is: Rattus norvegicus, po, 1 h, read-out: % reversal (1 h).
The mark [9] stands for this setting: Rattus norvegicus, po, 2 h, read-out: % reversal (2 h).

As usually defined, the IC50 is the point on the concentration scale where inhibition reaches its midpoint. A low value points to inhibition by little substance.

T1 sequence (P28223 whole entry): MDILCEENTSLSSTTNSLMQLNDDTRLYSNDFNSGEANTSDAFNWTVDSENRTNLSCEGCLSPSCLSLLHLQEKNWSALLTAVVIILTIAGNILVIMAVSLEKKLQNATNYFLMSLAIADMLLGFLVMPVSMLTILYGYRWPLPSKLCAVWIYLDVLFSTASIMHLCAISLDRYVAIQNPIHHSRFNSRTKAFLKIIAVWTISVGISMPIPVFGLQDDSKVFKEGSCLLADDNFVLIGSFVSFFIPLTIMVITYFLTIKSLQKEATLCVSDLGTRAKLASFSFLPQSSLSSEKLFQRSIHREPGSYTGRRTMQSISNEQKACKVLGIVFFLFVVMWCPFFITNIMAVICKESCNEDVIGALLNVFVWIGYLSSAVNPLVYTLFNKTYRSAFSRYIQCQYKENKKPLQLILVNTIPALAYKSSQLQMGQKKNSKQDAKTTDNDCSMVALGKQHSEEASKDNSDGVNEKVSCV
T2 sequence (P41594 21-1212): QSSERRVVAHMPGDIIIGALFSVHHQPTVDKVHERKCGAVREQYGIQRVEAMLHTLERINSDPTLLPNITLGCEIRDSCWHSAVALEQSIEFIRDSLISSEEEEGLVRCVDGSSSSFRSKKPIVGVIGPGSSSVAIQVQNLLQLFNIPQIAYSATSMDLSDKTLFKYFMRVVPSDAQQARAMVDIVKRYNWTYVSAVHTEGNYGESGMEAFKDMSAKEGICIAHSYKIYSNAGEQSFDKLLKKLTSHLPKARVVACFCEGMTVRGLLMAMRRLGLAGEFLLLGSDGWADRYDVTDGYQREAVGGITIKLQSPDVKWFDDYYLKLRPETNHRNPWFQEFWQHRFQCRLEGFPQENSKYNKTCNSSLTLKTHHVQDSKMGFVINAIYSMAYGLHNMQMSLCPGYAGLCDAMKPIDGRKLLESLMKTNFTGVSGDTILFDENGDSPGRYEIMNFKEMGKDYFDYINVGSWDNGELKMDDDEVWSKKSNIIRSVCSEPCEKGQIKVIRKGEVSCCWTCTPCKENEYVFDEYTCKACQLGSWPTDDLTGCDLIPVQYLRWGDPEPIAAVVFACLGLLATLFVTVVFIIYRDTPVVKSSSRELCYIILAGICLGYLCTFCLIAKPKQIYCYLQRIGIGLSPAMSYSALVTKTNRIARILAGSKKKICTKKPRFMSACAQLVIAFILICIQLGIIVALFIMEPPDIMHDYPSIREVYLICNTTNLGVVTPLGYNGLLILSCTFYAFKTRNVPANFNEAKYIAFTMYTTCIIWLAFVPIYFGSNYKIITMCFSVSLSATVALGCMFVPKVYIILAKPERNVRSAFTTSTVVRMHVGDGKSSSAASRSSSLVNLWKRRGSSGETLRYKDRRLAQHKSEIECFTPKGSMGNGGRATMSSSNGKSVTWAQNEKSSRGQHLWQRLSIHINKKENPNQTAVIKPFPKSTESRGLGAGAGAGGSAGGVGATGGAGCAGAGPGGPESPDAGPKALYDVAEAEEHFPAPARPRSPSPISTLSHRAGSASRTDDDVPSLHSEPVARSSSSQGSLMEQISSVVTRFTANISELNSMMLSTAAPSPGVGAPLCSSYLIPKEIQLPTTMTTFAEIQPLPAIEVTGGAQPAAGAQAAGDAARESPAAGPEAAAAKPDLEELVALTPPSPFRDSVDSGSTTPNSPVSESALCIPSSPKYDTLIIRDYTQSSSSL

On to `O=C(NCC1(NC2CC2)CCOCC1)c1ccc(C#Cc2ccccc2F)cc1` [Example 22, N-((4-(cyclopropylamino)tetrahydro-2H-pyran-4-yl)methyl)-4-((2-fluorophenyl)ethynyl)benzamide], for which the inhibition in vivo at 50 mg/kg in assay [1] (setting [2]) amounted to 19.3%; in assay [1] (setting [3]) it was 77.5%. In addition, the 50% inhibitory concentration (IC50) was below 100 nM at human 5-HT2AR and 100 to 500 nM at mGluR5.

As for `CC(C)NC1(CNC(=O)c2ccc(C#Cc3ccccc3F)cc2)CCCCC1` [Example 25, 4-((2-fluorophenyl)ethynyl)-N-((1-(isopropylamino)cyclohexyl)methyl)benzamide], the inhibition in vivo at 25 mg/kg in assay [1] (setting [4]) was 36.5%; in assay [1] (setting [5]) it was 36.6%. In addition, the values for the IC50 at human 5-HT2AR and against mGluR5 were below 100 nM and 100 to 500 nM, respectively.

For the molecule `O=C(NCC1CCOCC1)c1ccc(C#Cc2ccccc2F)cc1` [Example 27, 4-((2-fluorophenyl)ethynyl)-N-((tetrahydro-2H-pyran-4-yl)methyl)benzamide], the inhibition in vivo at 50 mg/kg in assay [1] (setting [2]) was found to be 70.3%; in assay [1] (setting [3]), 66.3%. Also, the IC50 against human 5-HT2AR is 100 to 500 nM; at mGluR5 it was below 100 nM.

As to `O=C(NCC1(CO)CCCCC1)c1ccc(C#Cc2ccccc2F)cc1` [Example 37, 4-((2-fluorophenyl)ethynyl)-N-((1-(hydroxymethyl)cyclohexyl)methyl)benzamide], the inhibition in vivo at 100 mg/kg in assay [1] (setting [6]) is 37.1%; in assay [1] (setting [7]), 18.8%. In addition, the figures for the half-inhibitory concentration (IC50) against human 5-HT2AR and against mGluR5 were 100 to 500 nM and below 100 nM, respectively.

On to `O=C(NCC1CCC(F)(F)CC1)c1ccc(C#Cc2ccccc2F)cc1` [Example 39, N-((4,4-difluorocyclohexyl)methyl)-4-((2-fluorophenyl)ethynyl)benzamide], for which the inhibition in vivo at 100 mg/kg in assay [1] (setting [8]) amounted to 25.4%; in assay [1] (setting [9]) it was 33.5%. Moreover, the IC50 against human 5-HT2AR and against mGluR5 was below 100 nM in each case.

Take `O=C(NCC1CCCOC1)c1ccc(C#Cc2ccccc2F)cc1` (centres unmarked) [Example 40, 4-((2-fluorophenyl)ethynyl)-N-((tetrahydro-2H-pyran-3-yl)methyl)benzamide]: the inhibition in vivo at 50 mg/kg came to 103% in assay [1] (setting [2]) and 111% in assay [1] (setting [3]). The IC50 against human 5-HT2AR was 100 to 500 nM; on mGluR5, below 100 nM.

In the case of `CC(NC(=O)c1ccc(C#Cc2ccccc2F)cc1)C1CCOCC1` (centres unmarked) [Example 42, 4-((2-fluorophenyl)ethynyl)-N-(1-(tetrahydro-2H-pyran-4-yl)ethyl)benzamide], the inhibition in vivo at 100 mg/kg in assay [1] (setting [6]) was determined as 82.9%; in assay [1] (setting [7]), 88.1%. Further, the IC50 at human 5-HT2AR is 100 to 500 nM; against mGluR5, below 100 nM.

`O=C(NCC1CCOC1)c1ccc(C#Cc2ccccc2F)cc1` (centres unmarked) [Example 43, 4-((2-fluorophenyl)ethynyl)-N-((tetrahydrofuran-3-yl)methyl)benzamide]: the inhibition in vivo at 50 mg/kg in assay [1] (setting [2]) is 72.9%; in assay [1] (setting [3]), 90.8%. Moreover, the values for the concentration for half-maximal inhibition (IC50) against human 5-HT2AR and on mGluR5 were 100 to 500 nM and below 100 nM, respectively.

For `O=C(NCC1CCOCC1)c1ccc(C#Cc2ccc(F)cc2F)cc1` [Example 44, 4-((2,4-difluorophenyl)ethynyl)-N-((tetrahydro-2H-pyran-4-yl)methyl)benzamide], the inhibition in vivo at 50 mg/kg in assay [1] (setting [2]) was found to be 3.45%; in assay [1] (setting [3]) it was 9.13%. In addition, the IC50 on human 5-HT2AR was below 100 nM; against mGluR5, 500 to 1000 nM.

For the molecule `O=C(NC[C@H]1CCCO1)c1ccc(C#Cc2ccccc2F)cc1` [Example 45, (R)-4-((2-fluorophenyl)ethynyl)-N-((tetrahydrofuran-2-yl)methyl)benzamide], the inhibition in vivo at 50 mg/kg in assay [1] (setting [2]) is 77.7%; in assay [1] (setting [3]), 50.6%. Besides, the results for the IC50 at human 5-HT2AR and against mGluR5 were 100 to 500 nM and below 100 nM, respectively.

On to `O=C(NC[C@@H]1CCCO1)c1ccc(C#Cc2ccccc2F)cc1` [Example 46, (S)-4-((2-fluorophenyl)ethynyl)-N-((tetrahydrofuran-2-yl)methyl)benzamide], for which the inhibition in vivo at 100 mg/kg was determined as 73% in assay [1] (setting [6]) and 99.8% in assay [1] (setting [7]). In addition, the IC50 on human 5-HT2AR and against mGluR5 was 100 to 500 nM in each case.

Consider `O=C(NCC1CCOCC1)c1ccc(C#Cc2ccccc2)cc1` [Example 49, 4-(phenylethynyl)-N-((tetrahydro-2H-pyran-4-yl)methyl)benzamide], for which the inhibition in vivo at 25 mg/kg in assay [1] (setting [4]) amounted to 28.5%; in assay [1] (setting [5]), 22%. In addition, the IC50 at human 5-HT2AR is 100 to 500 nM; on mGluR5, below 100 nM.

`O=C(NCC1COCCO1)c1ccc(C#Cc2ccccc2F)cc1` (centres unmarked) [Example 51, N-((1,4-dioxan-2-yl)methyl)-4-((2-fluorophenyl)ethynyl)benzamide]: the inhibition in vivo at 50 mg/kg in assay [1] (setting [2]) was 5.97%; in assay [1] (setting [3]), 14.5%. Moreover, the IC50 against human 5-HT2AR was 100 to 500 nM; against mGluR5, below 100 nM.

For `CC1(CNC(=O)c2ccc(C#Cc3ccccc3F)cc2)COC1` [Example 52, 4-((2-fluorophenyl)ethynyl)-N-((3-methyloxetan-3-yl)methyl)benzamide], the inhibition in vivo at 100 mg/kg in assay [1] (setting [6]) worked out at 90.8%; in assay [1] (setting [7]), 101%. The half-inhibitory concentration (IC50) against human 5-HT2AR was 100 to 500 nM; against mGluR5 it was below 100 nM.

As to `CC(C)NC1(CNC(=O)c2ccc(C#Cc3ccccc3)cc2)CCCCC1` [Example 55, N-((1-(isopropylamino)cyclohexyl)methyl)-4-(phenylethynyl)benzamide], the figures for the inhibition in vivo at 100 mg/kg in assay [1] (setting [6]) and in assay [1] (setting [7]) were 68.9% and 80.2%, respectively. Also, the IC50 was below 100 nM at human 5-HT2AR and 1000 to 2000 nM against mGluR5.

As for `O=C(NCC1CC(F)(F)C1)c1ccc(C#Cc2ccccc2F)cc1` [Example 56, N-((3,3-difluorocyclobutyl)methyl)-4-((2-fluorophenyl)ethynyl)benzamide], the inhibition in vivo at 50 mg/kg was 47.4% in assay [1] (setting [8]) and 43.6% in assay [1] (setting [9]). Besides, the IC50 is 100 to 500 nM on human 5-HT2AR and below 100 nM at mGluR5.

With `O=C(NCC1CCO1)c1ccc(C#Cc2ccccc2F)cc1` (centres unmarked) [Example 58, 4-((2-fluorophenyl)ethynyl)-N-(oxetan-2-ylmethyl)benzamide], the inhibition in vivo at 25 mg/kg in assay [1] (setting [4]) was found to be 61.5%; in assay [1] (setting [5]) it was 28.3%. The 50% inhibitory concentration (IC50) on human 5-HT2AR and against mGluR5 was 100 to 500 nM in each case.

For the molecule `O=C(NCC1CCCCC1O)c1ccc(C#Cc2ccccc2F)cc1` (centres unmarked) [Example 63, 4-((2-fluorophenyl)ethynyl)-N-((2-hydroxycyclohexyl)methyl)benzamide], the inhibition in vivo at 50 mg/kg in assay [1] (setting [2]) was 70.9%; in assay [1] (setting [3]), 42.1%. The results for the IC50 against human 5-HT2AR and against mGluR5 were 100 to 500 nM and below 100 nM, respectively.

Consider `O=C(NCC1CCCC(O)C1)c1ccc(C#Cc2ccccc2F)cc1` (centres unmarked) [Example 64, 4-((2-fluorophenyl)ethynyl)-N-((3-hydroxycyclohexyl)methyl)benzamide], for which the inhibition in vivo at 50 mg/kg is 10.4% in assay [1] (setting [2]) and 45.2% in assay [1] (setting [3]). The IC50 against human 5-HT2AR is 500 to 1000 nM; at mGluR5, below 100 nM.

In the case of `COC1(CNC(=O)c2ccc(C#Cc3ccccc3F)cc2)CCCCC1` [Example 65, 4-((2-fluorophenyl)ethynyl)-N-((1-methoxycyclohexyl)methyl)benzamide], the inhibition in vivo at 50 mg/kg amounted to 34% in assay [1] (setting [8]) and 80.8% in assay [1] (setting [9]). For the same molecule, the half-inhibitory concentration (IC50) against human 5-HT2AR is 500 to 1000 nM; against mGluR5 it was below 100 nM.
